In EP0777471B1, “INHIBITION OF LEUKOTRIENE BIOSYNTHESIS WITH UREA DERIVATIVES” (MINNESOTA MINING AND MANUFACTURING COMPANY, priority 1994, dated 1996):

How the values were obtained:
5-lipoxygenase = molecular target: T1, 5-lipoxygenase (Homo sapiens, UniProt P09917); assay: 5-Lipoxygenase inhibition in human leukocytes (A23187-stimulated, LTC4 radioimmunoassay); type: cell-based; details: human leukocytes, A23187 Calcium Ionophore, LTC4 formed; read-out: IC50
T1 construct: Whole human blood is collected by venipuncture into EDTA; endogenous in cells; host or cells: leukocytes isolated from whole human blood (dextran sedimentation, hypotonic lysis)
T1 sequence (P09917 1-674): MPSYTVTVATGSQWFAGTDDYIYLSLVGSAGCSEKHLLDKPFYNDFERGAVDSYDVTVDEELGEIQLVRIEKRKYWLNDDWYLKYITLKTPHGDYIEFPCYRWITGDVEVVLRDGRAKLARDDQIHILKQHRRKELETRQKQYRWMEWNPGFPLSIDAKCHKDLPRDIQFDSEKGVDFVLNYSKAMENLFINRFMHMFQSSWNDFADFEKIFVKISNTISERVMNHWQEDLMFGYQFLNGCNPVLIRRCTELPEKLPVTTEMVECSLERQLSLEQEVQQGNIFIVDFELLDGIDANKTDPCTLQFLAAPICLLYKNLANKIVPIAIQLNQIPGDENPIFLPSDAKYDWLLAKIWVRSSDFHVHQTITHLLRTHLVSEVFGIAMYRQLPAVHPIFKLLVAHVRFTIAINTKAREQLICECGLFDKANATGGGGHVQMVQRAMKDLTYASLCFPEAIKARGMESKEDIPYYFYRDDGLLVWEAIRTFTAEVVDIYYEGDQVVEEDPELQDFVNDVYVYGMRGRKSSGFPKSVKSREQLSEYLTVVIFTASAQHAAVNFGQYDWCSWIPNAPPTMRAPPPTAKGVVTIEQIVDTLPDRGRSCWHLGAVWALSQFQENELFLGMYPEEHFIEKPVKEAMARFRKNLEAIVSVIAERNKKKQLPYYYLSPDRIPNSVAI
Method: The test method described below measures the ability of compounds to inhibit 5-lipoxygenase activity in human leukocytes.
Whole human blood is collected by venipuncture into EDTA (1.4 mL of 0.25M per 60 mL of whole blood). The red blood cells are sedimented with a 6% dextran/0.9% sodium chloride solution at a ratio of 25 mL whole blood to 15 mL dextran solution. The blood/dextran combination is mixed by inversion and the red blood cells are allowed to settle out for 45 minutes at ambient temperature. The plasma/dextran supernatant is removed then centrifuged at ambient temperature at 3000 rpm for 10 minutes. The plasma/dextran supernatant is removed and the cells are resuspended in 10 mL of the plasma/dextran solution. […] The pellet is then resuspended into Tris buffer containing 1 mM calcium chloride to provide approximately 1.0 X 10^7 cells/mL.
Compounds are dissolved in dimethyl sulfoxide. […] Each concentration is tested in duplicate.
A 15 µL portion of Tris buffer containing 1 mM calcium chloride is added to each well of a 96 well microtiter plate. A 1 µL portion of drug solution or vehicle (dimethyl sulfoxide) is added to each well followed by the addition of an 75 µL portion of the cell suspension. The plates are gently mixed then allowed to stand at ambient temperature for 10 minutes. A 10 µL portion of 30 µM A23187 Calcium Ionophore (prepared by dissolving the ionophore in DMSO and then diluting 1:80 into the Tris buffer) is added to each well except the wells that contain the blanks (The blank wells measure the level of LTC4 production in the absence of A23187.). The plates are gently mixed then incubated at 37°C for 10 minutes.
Following incubation the plates are centrifuged at 2000 rpm for 1.5 minutes and the supernatant is removed as quickly as possible to stop the reaction. The supernatants are frozen at -20°C until they are assayed.
The supernatants are assayed for the presence of Leukotriene C4 by radioimmunoassay which is performed according to the manufacturer's (Advanced Magnetics; Cambridge, MA) instructions.

[1] = test system: production of Leukotriene C4 in mouse peritoneal macrophages; assay: In vitro mouse peritoneal macrophage Leukotriene C4 inhibition (zymosan-stimulated, LTC4 radioimmunoassay); type: cell-based; details: Zymosan 50 µg/mL
Summary of the method: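 Adherent peritoneal macrophages from female CD-1 mice were preincubated 15 minutes at 37°C with compound (10, 1 and 0.1 µM, duplicate; DMSO). They were then stimulated with 50 µg/mL zymosan for 1 to 2 hours. Leukotriene C4 released into the medium was measured by radioimmunoassay.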

[2] = test system: production of Leukotriene B4; assay: Rat ex vivo Leukotriene B4 inhibition (oral dosing, blood challenged with A23187); type: in vivo, Rats; details: two hours post dose
Summary of the method: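 Male CD rats (250 g, non-fasted) dosed orally with compound in PEG 400, 5 rats/group; blood drawn by cardiac puncture before and 2 h after dosing. Heparinized blood challenged with A23187 calcium ionophore, 30 min at 37°C; plasma LTB4 measured by radioimmunoassay. % inhibition = post-dose vs pre-dose LTB4 level.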

Row | IC50 (5-lipoxygenase) | IC50 [1] | Compound | %I ([2]; 25 mg/Kg) | %I ([2]; 20 mg/Kg) | %I ([2]; 50 mg/Kg)
1 | 460 nM | > 10000 nM | CSc1cccc(NC(=O)NO)c1 [Compound 34, 1-hydroxy-3-[3-(methylthio)phenyl]urea] | -2.9% |  | 
2 | 30 nM | 900 nM | CCN(O)C(=O)Nc1ccccc1 [Compound 43, 1-ethyl-1-hydroxy-3-phenylurea] |  | 12% | 16%
